{"source": "patent US8536226B2", "about": "“Methods for the treatment of dermatological disorders” (Janssen Pharmaceutica, NV, priority 2008, dated 2013)", "key": {"[1]": {"system": "rat adipocytes", "conditions": "read-out: EC50, lipolytic activity; cited from earlier work"}, "[2]": {"system": "isolated non-human primate adipocytes", "conditions": "concentrations as high as 1 μM; cited from earlier work"}, "[3]": {"system": "isolated human adipocytes", "conditions": "concentrations as high as 1 μM; cited from earlier work"}, "[4]": {"system": "rabbit adipocytes", "conditions": "read-out: EC50, lipolytic activity; cited from earlier work"}, "[5]": {"system": "human sebocytes", "assay": "cells", "type": "cell-based"}, "[6]": {"molecular_target": "T1, Melanocortin-5 (MC-5) receptor (Homo sapiens, UniProt P33032)", "T1 sequence (P33032 whole entry)": "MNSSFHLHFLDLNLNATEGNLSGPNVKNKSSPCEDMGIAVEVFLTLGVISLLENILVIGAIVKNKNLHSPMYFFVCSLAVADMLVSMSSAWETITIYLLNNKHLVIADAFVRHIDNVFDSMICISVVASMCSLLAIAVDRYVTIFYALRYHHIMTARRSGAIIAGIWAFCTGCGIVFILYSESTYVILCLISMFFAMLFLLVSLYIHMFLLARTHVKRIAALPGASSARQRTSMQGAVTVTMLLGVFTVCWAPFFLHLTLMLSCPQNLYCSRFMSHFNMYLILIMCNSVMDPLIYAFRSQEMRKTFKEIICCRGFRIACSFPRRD", "assay": "MC-5 receptor binding assay, MDS-PANLABS (human recombinant HEK-293 cells, [125]NDP-α-MSH)", "set-up": "host or cells: HEK-293 cells", "experimental": "(§1) Binding to the MC-5 receptor was measured in two assays, performed by CEREP and MDS-PANLABS.\nThe assay run by MDS-PANLABS (Catalog Ref #251400) used human recombinant HEK-293 cells, ^[125]NDP-α-MSH as the ligand (0.035 nM), various concentrations of the compound of formula (I), incubating at 37° C. for 60 min, and detecting binding via scintillation counting. Specific ligand binding to the receptors was defined as the difference between the total binding and the nonspecific binding determined in the presence of an excess (3 μM) of unlabelled NDP-α-MSH. IC50 values were determined by a non-linear, least squares regression analysis using Data Analysis Toolbox. Inhibition constants (Ki) were calculated using the equation of Cheng and Prusoff (Biochem. Pharmacol. 22:3099, 1973) using the observed IC50 of the tested compound, the concentration of radioligand employed in the assay, and the historical values for the Kd of the ligand (obtained experimentally at MDS Pharma Services).\nThe compound of formula (I) was tested for binding to the MC-5 receptor in both the CEREP and MDS-PANLABS assays with results as listed in Table 3 below."}, "[7]": {"system": "human sebocytes", "assay": "cells", "type": "cell-based", "conditions": "read-out: % Inhibition (Nile Red Fluorescence)"}, "[8]": {"molecular_target": "T1, Melanocortin-5 (MC-5) receptor", "assay": "MC-5 receptor binding assay, CEREP (human recombinant CHO cells, [125]NDP-α-MSH)", "experimental": "as §1\nThe assay run by CEREP (Catalog Ref. #889-5h) used human recombinant CHO cells, ^[125]NDP-α-MSH as the ligand (0.05 nM concentration), NDP-α-MSH as the non-specific (1 μM), incubating at 37° C. for 60 min and detecting binding via scintillation counting. The specific ligand binding to the receptors was defined as the difference between the total binding and the nonspecific binding determined in the presence of an excess of unlabelled ligand. The IC50 values (the concentration causing a half-maximal inhibition of control specific binding) and Hill coefficients were determined by non-linear regression analysis of the competition curves generated with mean replicate values using Hill equation curve fitting (Y=D+[(A−D)/(1+(C/C50)^nH)], where Y=specific binding, D=minimum specific binding, A=maximum specific binding, C=compound concentration, C50=IC50, and nH=slope factor). This analysis was performed using software developed at CEREP (Hill software) and validated by comparison with data generated by the commercial software SigmaPlot® 4.0 for Windows® (© 1997 by SPSS Inc.). The inhibition constants (Ki) were calculated using the Cheng Prusoff equation (Ki=IC50/(1+(L/KD)), where L=concentration of radioligand in the assay, and KD=affinity of the radioligand for the receptor). […]"}}, "note": "“And” between values parts separate entries of the source, which are not always exact repeats. Equal values may be shown once. Read-outs that look alike come from different tables or passages of the source.", "data": [{"compound": "ACTH: melanocortin neuropeptide arising from pro-opiomelanocortin (POMC) (SYSMEHFRWGKPVGKKRRPVKVYPNGAEDESAEAFPLEF; Corticotropin; UniProt P01189 138-176, looked up)", "values": [{"measurement": "EC50", "setting": "[1]", "result": 1.34, "unit": "nM"}, {"measurement": "effect on lipolysis", "setting": "[2]", "result": "very little effect"}, {"measurement": "effect on lipolysis", "setting": "[3]", "result": "very little effect"}, {"measurement": "EC50", "setting": "[4]", "result": 16.4, "unit": "nM"}]}, {"compound": "COc1ccccc1N/C(=N\\C(=S)Nc1ccccc1)c1ccccc1OC", "note": "[Compound (I), 1-[(2-methoxy-phenyl)-(2-methoxy-phenylamino)-methylene]-3-phenyl-thiourea]", "values": [{"measurement": "inhibition at 0.8 µM", "setting": "[5]; read-out: % Inhibition of Sebaceous Lipid Synthesis, cholesterol esters, Study 1, @ 0.8 μM", "result": 30, "unit": "%"}, {"measurement": "inhibition at 1.2 µM", "setting": "[5]; read-out: % Inhibition of Sebaceous Lipid Synthesis, cholesterol esters, Study 1, @ 1.2 μM", "result": 35, "unit": "%"}, {"measurement": "inhibition at 1.6 µM", "setting": "[5]; read-out: % Inhibition of Sebaceous Lipid Synthesis, cholesterol esters, Study 1, @ 1.6 μM", "result": 45, "unit": "%"}, {"measurement": "inhibition at 3.2 µM", "setting": "[5]; read-out: % Inhibition of Sebaceous Lipid Synthesis, cholesterol esters, Study 1, @ 3.2 μM", "result": 60, "unit": "%"}, {"measurement": "inhibition at 0.4 µM", "setting": "[5]; read-out: % Inhibition of Sebaceous Lipid Synthesis, cholesterol esters, Study 2, @ 0.4 μM", "result": 44, "unit": "%"}, {"measurement": "inhibition at 0.8 µM", "setting": "[5]; read-out: % Inhibition of Sebaceous Lipid Synthesis, cholesterol esters, Study 2, @ 0.8 μM", "result": 64, "unit": "%"}, {"measurement": "inhibition at 1.2 µM", "setting": "[5]; read-out: % Inhibition of Sebaceous Lipid Synthesis, cholesterol esters, Study 2, @ 1.2 μM", "result": 72, "unit": "%"}, {"measurement": "inhibition at 1.6 µM", "setting": "[5]; read-out: % Inhibition of Sebaceous Lipid Synthesis, cholesterol esters, Study 2, @ 1.6 μM", "result": 74, "unit": "%"}, {"measurement": "inhibition at 3.2 µM", "setting": "[5]; read-out: % Inhibition of Sebaceous Lipid Synthesis, cholesterol esters, Study 2, @ 3.2 μM", "result": 86, "unit": "%"}, {"measurement": "inhibition at 0.8 µM", "setting": "[5]; read-out: % Inhibition of Sebaceous Lipid Synthesis, squalene, Study 1, @ 0.8 μM", "result": 50, "unit": "%"}, {"measurement": "inhibition at 1.2 µM", "setting": "[5]; read-out: % Inhibition of Sebaceous Lipid Synthesis, squalene, Study 1, @ 1.2 μM", "result": 55, "unit": "%"}, {"measurement": "inhibition at 1.6 µM", "setting": "[5]; read-out: % Inhibition of Sebaceous Lipid Synthesis, squalene, Study 1, @ 1.6 μM", "result": 62, "unit": "%"}, {"measurement": "inhibition at 3.2 µM", "setting": "[5]; read-out: % Inhibition of Sebaceous Lipid Synthesis, squalene, Study 1, @ 3.2 μM", "result": 76, "unit": "%"}, {"measurement": "inhibition at 0.4 µM", "setting": "[5]; read-out: % Inhibition of Sebaceous Lipid Synthesis, squalene, Study 2, @ 0.4 μM", "result": 64, "unit": "%"}, {"measurement": "inhibition at 0.8 µM", "setting": "[5]; read-out: % Inhibition of Sebaceous Lipid Synthesis, squalene, Study 2, @ 0.8 μM", "result": 88, "unit": "%"}, {"measurement": "inhibition at 1.2 µM", "setting": "[5]; read-out: % Inhibition of Sebaceous Lipid Synthesis, squalene, Study 2, @ 1.2 μM", "result": 92, "unit": "%"}, {"measurement": "inhibition at 1.6 µM", "setting": "[5]; read-out: % Inhibition of Sebaceous Lipid Synthesis, squalene, Study 2, @ 1.6 μM", "result": 94, "unit": "%"}, {"measurement": "inhibition at 3.2 µM", "setting": "[5]; read-out: % Inhibition of Sebaceous Lipid Synthesis, squalene, Study 2, @ 3.2 μM", "result": 96, "unit": "%"}, {"measurement": "inhibition at 0.8 µM", "setting": "[5]; read-out: % Inhibition of Sebaceous Lipid Synthesis, triglycerides, Study 1, @ 0.8 μM", "result": 0, "unit": "%"}, {"measurement": "inhibition at 1.2 µM", "setting": "[5]; read-out: % Inhibition of Sebaceous Lipid Synthesis, triglycerides, Study 1, @ 1.2 μM", "result": 10, "unit": "%"}, {"measurement": "inhibition at 1.6 µM", "setting": "[5]; read-out: % Inhibition of Sebaceous Lipid Synthesis, triglycerides, Study 1, @ 1.6 μM", "result": 8, "unit": "%"}, {"measurement": "inhibition at 3.2 µM", "setting": "[5]; read-out: % Inhibition of Sebaceous Lipid Synthesis, triglycerides, Study 1, @ 3.2 μM", "result": 2, "unit": "%"}, {"measurement": "inhibition at 0.4 µM", "setting": "[5]; read-out: % Inhibition of Sebaceous Lipid Synthesis, triglycerides, Study 2, @ 0.4 μM", "result": 22, "unit": "%"}, {"measurement": "inhibition at 0.8 µM", "setting": "[5]; read-out: % Inhibition of Sebaceous Lipid Synthesis, triglycerides, Study 2, @ 0.8 μM", "result": 20, "unit": "%"}, {"measurement": "inhibition at 1.2 µM", "setting": "[5]; read-out: % Inhibition of Sebaceous Lipid Synthesis, triglycerides, Study 2, @ 1.2 μM", "result": 16, "unit": "%"}, {"measurement": "inhibition at 1.6 µM", "setting": "[5]; read-out: % Inhibition of Sebaceous Lipid Synthesis, triglycerides, Study 2, @ 1.6 μM", "result": 14, "unit": "%"}, {"measurement": "inhibition at 3.2 µM", "setting": "[5]; read-out: % Inhibition of Sebaceous Lipid Synthesis, triglycerides, Study 2, @ 3.2 μM", "result": 6, "unit": "%"}, {"measurement": "IC50", "setting": "[6]; MDS-PANLABS MEAN ± SD", "result": "2350 ± 1670", "unit": "nM"}, {"measurement": "Ki", "setting": "[6]; MDS-PANLABS MEAN ± SD", "result": "2200 ± 1560", "unit": "nM"}, {"measurement": "Ki", "setting": "[6]; MDS-PANLABS assay, Cheng Prusoff, single runs", "result": "1100 nM and 3310 nM"}, {"measurement": "IC50", "setting": "[6]; MDS-PANLABS assay, HEK-293 cells, 0.035 nM radioligand, single runs", "result": "1170 nM and 3530 nM"}, {"measurement": "inhibition at 0.4 µM", "setting": "[7]", "result": 24, "unit": "%"}, {"measurement": "inhibition at 0.6 µM", "setting": "[7]", "result": 25, "unit": "%"}, {"measurement": "inhibition at 0.8 µM", "setting": "[7]", "result": 39, "unit": "%"}, {"measurement": "inhibition at 1 µM", "setting": "[7]", "result": 45, "unit": "%"}, {"measurement": "inhibition at 1.2 µM", "setting": "[7]", "result": 43, "unit": "%"}, {"measurement": "IC50", "setting": "[8]; CHO cells, 0.05 nM radioligand", "result": 57000, "unit": "nM"}, {"measurement": "Ki", "setting": "[8]; Cheng Prusoff", "result": 53000, "unit": "nM"}]}, {"compound": "αMSH", "values": [{"measurement": "EC50", "setting": "[4]", "result": 3.7, "unit": "nM"}]}]}
